Measured values published in ChEMBL document CHEMBL5380782, “Design, Biological Evaluation, and Computer-Aided Analysis of Dihydrothiazepines as Selective Antichlamydial Agents” (J Med Chem, 2023).

How the values were obtained:
Chlamydia trachomatis = assay: Antibacterial activity against Chlamydia trachomatis serovar L2 infected in HEp-2 cells assessed as bacterial growth inhibition incubated for 16 hrs by IFA assay; type: functional, organism-based; details: serovar L2, HEp-2, 16 h
Staphylococcus aureus = assay: Antimicrobial activity against Staphylococcus aureus USA 300 JE2 assessed as microbial growth inhibition incubated for 24 hrs by TTC staining based assay; type: functional
Acinetobacter baumannii = assay: Antimicrobial activity against Acinetobacter baumannii 2208 assessed as microbial growth inhibition incubated for 24 hrs by TTC staining based assay; type: functional
Escherichia coli = assay: Antimicrobial activity against Escherichia coli K12 assessed as microbial growth inhibition incubated for 24 hrs by TTC staining based assay; type: functional
[1] = tested on: Lacticaseibacillus rhamnosus; assay: Antimicrobial activity against Lactobacillus rhamnosus CGMCC 1.3724 assessed as microbial growth inhibition incubated for 24 hrs by TTC staining based assay; type: functional
[2] = tested on: Lactiplantibacillus plantarum; assay: Antimicrobial activity against Lactobacillus plantarum DSM 20174 assessed as microbial growth inhibition incubated for 24 hrs; type: functional
Blautia producta = assay: Antimicrobial activity against Blautia producta DSM 2950 assessed as microbial growth inhibition incubated for 48 hrs; type: functional
Thomasclavelia ramosa = assay: Antimicrobial activity against Clostridium ramosum DSM 1402 assessed as microbial growth inhibition incubated for 48 hrs; type: functional
Anaerostipes caccae = assay: Antimicrobial activity against Anaerostipes caccae […] assessed as microbial growth inhibition incubated for 48 hrs; type: functional
Pichia kudriavzevii = assay: Antimicrobial activity against Pichia kudriavzevii 6558 assessed as microbial growth inhibition by broth microdilution method; type: functional
[3] = Cytotoxicity against HEK293 cells assessed as cell viability at 25 ug/ml incubated for 20 hrs by XTT assay relative to control; type: toxicity, cell-based; details: human, at 25 µg/mL, read-out: Activity
[4] = Stability of compound in human serum assessed as compound remaining at 2 mg/ml measured after 180 mins by HPLC analysis; type: ADME, cell-free; details: read-out: Stability
[5] = Stability of compound in simulated gastric fluid assessed as compound remaining at 2 mg/ml measured after 24 hrs by HPLC analysis; type: ADME; details: read-out: Stability
[6] = Stability of compound in simulated intestinal fluid assessed as compound remaining at 2 mg/ml measured after 24 hrs by HPLC analysis; type: ADME; details: read-out: Stability
[7] = Mutagenicity in Salmonella typhimurium TA98 assessed as number of revertants per plate at 150 ug pretreated for 90 mins measured after 66 hrs by AMES test (reference value: 25.67 +/- 5.51); type: toxicity, Salmonella enterica subsp. enterica serovar Typhimurium; details: in vivo, 67.5 h, dose 150 µg
[8] = Mutagenicity in Salmonella typhimurium TA98 assessed as number of revertants per plate at 1500 ug pretreated for 90 mins measured after 66 hrs by AMES test (reference value: 25.67 +/- 5.51); type: toxicity, Salmonella enterica subsp. enterica serovar Typhimurium; details: in vivo, 67.5 h, dose 1500 µg
[9] = Mutagenicity in Salmonella typhimurium TA98 assessed as mutagenic index ratio at 150 ug pretreated for 90 mins measured after 66 hrs by AMES test; type: toxicity, Salmonella enterica subsp. enterica serovar Typhimurium; details: in vivo, 67.5 h, dose 150 µg
[10] = Mutagenicity in Salmonella typhimurium TA98 assessed as mutagenic index ratio at 5000 ug pretreated for 90 mins measured after 66 hrs by AMES test; type: toxicity, Salmonella enterica subsp. enterica serovar Typhimurium; details: in vivo, 67.5 h, dose 5000 µg
[11] = Mutagenicity in Salmonella typhimurium TA98 assessed as number of revertants per plate at 150 ug pretreated for 90 mins measured after 66 hrs in presence of S9 fraction by AMES test (reference value: 24.33 +/- 9.50); type: toxicity, subcellular, Salmonella enterica subsp. enterica serovar Typhimurium; details: s9, 67.5 h, dose 150 µg
[12] = Mutagenicity in Salmonella typhimurium TA98 assessed as number of revertants per plate at 500 ug pretreated for 90 mins measured after 66 hrs in presence of S9 fraction by AMES test (reference value: 24.33 +/- 9.50); type: toxicity, subcellular, Salmonella enterica subsp. enterica serovar Typhimurium; details: s9, 67.5 h, dose 500 µg
[13] = Mutagenicity in Salmonella typhimurium TA98 assessed as number of revertants per plate at 1500 ug pretreated for 90 mins measured after 66 hrs in presence of S9 fraction by AMES test (reference value: 24.33 +/- 9.50); type: toxicity, subcellular, Salmonella enterica subsp. enterica serovar Typhimurium; details: s9, 67.5 h, dose 1500 µg
[14] = Mutagenicity in Salmonella typhimurium TA98 assessed as mutagenic index ratio at 50 ug pretreated for 90 mins measured after 66 hrs in presence of S9 fraction by AMES test; type: toxicity, subcellular, Salmonella enterica subsp. enterica serovar Typhimurium; details: s9, 67.5 h, dose 50 µg
[15] = Mutagenicity in Salmonella typhimurium TA98 assessed as mutagenic index ratio at 500 ug pretreated for 90 mins measured after 66 hrs in presence of S9 fraction by AMES test; type: toxicity, subcellular, Salmonella enterica subsp. enterica serovar Typhimurium; details: s9, 67.5 h, dose 500 µg
[16] = Mutagenicity in Salmonella typhimurium TA98 assessed as mutagenic index ratio at 5000 ug pretreated for 90 mins measured after 66 hrs in presence of S9 fraction by AMES test; type: toxicity, subcellular, Salmonella enterica subsp. enterica serovar Typhimurium; details: s9, 67.5 h, dose 5000 µg
[17] = Mutagenicity in Salmonella typhimurium TA100 assessed as number of revertants per plate at 500 ug pretreated for 90 mins measured after 66 hrs by AMES test (reference value: 206 +/- 7.07); type: toxicity, Salmonella enterica subsp. enterica serovar Typhimurium; details: in vivo, 67.5 h, dose 500 µg
[18] = Mutagenicity in Salmonella typhimurium TA100 assessed as number of revertants per plate at 1500 ug pretreated for 90 mins measured after 66 hrs by AMES test (reference value: 206 +/- 7.07); type: toxicity, Salmonella enterica subsp. enterica serovar Typhimurium; details: in vivo, 67.5 h, dose 1500 µg
[19] = Mutagenicity in Salmonella typhimurium TA100 assessed as number of revertants per plate at 5000 ug pretreated for 90 mins measured after 66 hrs by AMES test (reference value: 206 +/- 7.07); type: toxicity, Salmonella enterica subsp. enterica serovar Typhimurium; details: in vivo, 67.5 h, dose 5000 µg
[20] = Mutagenicity in Salmonella typhimurium TA100 assessed as mutagenic index ratio at 150 ug pretreated for 90 mins measured after 66 hrs by AMES test; type: toxicity, Salmonella enterica subsp. enterica serovar Typhimurium; details: in vivo, 67.5 h, dose 150 µg
[21] = Mutagenicity in Salmonella typhimurium TA100 assessed as mutagenic index ratio at 500 ug pretreated for 90 mins measured after 66 hrs by AMES test; type: toxicity, Salmonella enterica subsp. enterica serovar Typhimurium; details: in vivo, 67.5 h, dose 500 µg
[22] = Mutagenicity in Salmonella typhimurium TA100 assessed as mutagenic index ratio at 1500 ug pretreated for 90 mins measured after 66 hrs by AMES test; type: toxicity, Salmonella enterica subsp. enterica serovar Typhimurium; details: in vivo, 67.5 h, dose 1500 µg
[23] = Mutagenicity in Salmonella typhimurium TA100 assessed as mutagenic index ratio at 5000 ug pretreated for 90 mins measured after 66 hrs by AMES test; type: toxicity, Salmonella enterica subsp. enterica serovar Typhimurium; details: in vivo, 67.5 h, dose 5000 µg
[24] = Mutagenicity in Salmonella typhimurium TA100 assessed as number of revertants per plate at 500 ug pretreated for 90 mins measured after 66 hrs in presence of S9 by AMES test (reference value: 201 +/- 9.90); type: toxicity, Salmonella enterica subsp. enterica serovar Typhimurium; details: in vivo, 67.5 h, dose 500 µg
[25] = Mutagenicity in Salmonella typhimurium TA100 assessed as mutagenic index ratio at 500 ug pretreated for 90 mins measured after 66 hrs in presence of S9 by AMES test; type: toxicity, Salmonella enterica subsp. enterica serovar Typhimurium; details: in vivo, 67.5 h, dose 500 µg
[26] = Mutagenicity in Salmonella typhimurium TA100 assessed as mutagenic index ratio at 1500 ug pretreated for 90 mins measured after 66 hrs in presence of S9 by AMES test; type: toxicity, Salmonella enterica subsp. enterica serovar Typhimurium; details: in vivo, 67.5 h, dose 1500 µg
[27] = Mutagenicity in Salmonella typhimurium TA100 assessed as mutagenic index ratio at 5000 ug pretreated for 90 mins measured after 66 hrs in presence of S9 by AMES test; type: toxicity, Salmonella enterica subsp. enterica serovar Typhimurium; details: in vivo, 67.5 h, dose 5000 µg

**Q.** For N#Cc1ccccc1C1Sc2ccccc2NC2=C1C(=O)c1ccccc12 (stereo unspecified), which IC50 (Chlamydia trachomatis; read-out: IC50) is on record?
**A.** The IC50 was 1.61 µg/mL.

**Q.** What about the IC50 (Chlamydia trachomatis; read-out: pIC50 (converted)) of the same molecule?
**A.** Its IC50 is 4.37 µM.

**Q.** And the MIC (Staphylococcus aureus)?
**A.** Its MIC is over 125 µg/mL.

**Q.** And the MIC (Acinetobacter baumannii)?
**A.** The MIC was over 125 µg/mL.

**Q.** What about the MIC (Escherichia coli) of the same molecule?
**A.** Its MIC is over 125 µg/mL.

**Q.** And the MIC [1]?
**A.** Its MIC is over 125 µg/mL.

**Q.** What about the MIC [2] of the same molecule?
**A.** The MIC was over 125 µg/mL.

**Q.** What about the MIC (Blautia producta) of the same molecule?
**A.** Its MIC is over 125 µg/mL.

**Q.** And the MIC (Thomasclavelia ramosa)?
**A.** Its MIC is over 125 µg/mL.

**Q.** What about the MIC (Anaerostipes caccae) of the same molecule?
**A.** The MIC was over 125 µg/mL.

**Q.** What about the MIC (Pichia kudriavzevii) of the same molecule?
**A.** The MIC was over 1000 µg/mL.

**Q.** What about the viability at 20 h, 25 ug/ml [3] of the same molecule?
**A.** The viability at 20 h, 25 ug/ml was 84%.

**Q.** What about the remaining at 3 h, 2 mg/ml [4] of the same molecule?
**A.** The remaining at 3 h, 2 mg/ml was 100%.

**Q.** And the remaining at 24 h, 2 mg/ml [5]?
**A.** Its remaining at 24 h, 2 mg/ml is 70%.

**Q.** What about the remaining at 24 h, 2 mg/ml [6] of the same molecule?
**A.** The remaining at 24 h, 2 mg/ml was 85%.

**Q.** What about the Activity [7] of the same molecule?
**A.** Its Activity is 34.5.

**Q.** What about the Activity [8] of the same molecule?
**A.** The Activity was 39.

**Q.** What about the Ratio [9] of the same molecule?
**A.** Its Ratio is 1.34.

**Q.** What about the Ratio [10] of the same molecule?
**A.** Its Ratio is 1.46.

**Q.** And the Activity [11]?
**A.** The Activity was 35.

**Q.** And the Activity [12]?
**A.** Its Activity is 43.5.

**Q.** What about the Activity [13] of the same molecule?
**A.** The Activity was 30.5.

**Q.** What about the Ratio [14] of the same molecule?
**A.** Its Ratio is 1.31.

**Q.** And the Ratio [15]?
**A.** The Ratio was 1.78.

**Q.** What about the Ratio [16] of the same molecule?
**A.** Its Ratio is 1.78.

**Q.** What about the Activity [17] of the same molecule?
**A.** Its Activity is 233.

**Q.** What about the Activity [18] of the same molecule?
**A.** Its Activity is 241.

**Q.** What about the Activity [19] of the same molecule?
**A.** Its Activity is 241.

**Q.** And the Ratio [20]?
**A.** Its Ratio is 0.91.

**Q.** What about the Ratio [21] of the same molecule?
**A.** Its Ratio is 1.13.

**Q.** And the Ratio [22]?
**A.** Its Ratio is 1.16.

**Q.** And the Ratio [23]?
**A.** Its Ratio is 1.16.

**Q.** And the Activity [24]?
**A.** The Activity was 191.5.

**Q.** And the Ratio [25]?
**A.** The Ratio was 0.95.

**Q.** What about the Ratio [26] of the same molecule?
**A.** Its Ratio is 0.98.

**Q.** And the Ratio [27]?
**A.** Its Ratio is 1.12.
